Experimental findings from ChEMBL document CHEMBL1201862, “PubChem BioAssay data set” (2004) are described below.

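Exposure lasted 48 hours, with cells grown in 96-well plates and compounds tested at five concentrations. GI50: concentration for 50% inhibition of growth.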 The source made the active and inactive calls. Cut-off read from the data, not from the text of the source: active = GI50 up to about 1.1 µM and inactive = higher.

Test systems include A549; CCRF-CEM; COLO 205; EKVX; HCT-116; HCT-15; IGROV-1; M14; MDA-N; NCI-H226; NCI-H23; NCI/ADR-RES; OVCAR-8; SK-MEL-5; SN12C; SNB-75; TK-10; UACC-257; SK-MEL-2; MDA-MB-435.
What all share (assay): DTP human tumour cell line panel, 48 h

As for `COC(CCC[N+](C)(C)C)CC[N+](C)(C)C` (centres undefined), the GI50 was > 100 µM (inactive) in the experiment on A549; > 100 µM (inactive) with CCRF-CEM; > 100 µM (inactive) in the experiment on COLO 205; > 100 µM (inactive) in the experiment with EKVX; > 100 µM (inactive) in the experiment with HCT-116; > 100 µM in the experiment with HCT-15. In addition, the GI50 in the experiment on IGROV-1, in the experiment on M14, in the experiment on MDA-N, in the experiment with NCI-H226, with NCI-H23 and in the experiment on NCI/ADR-RES was > 100 µM (inactive) each time. Also, the GI50 in the experiment on OVCAR-8, with SK-MEL-5, in the experiment on SN12C, in the experiment with SNB-75, with TK-10 and in the experiment with UACC-257 was > 100 µM (inactive) in each case.
`CN(CCO)CCCC1COc2ccccc2O1` (centres undefined): the GI50 with A549 was > 100 µM (inactive); in the experiment on CCRF-CEM it was > 100 µM (inactive); in the experiment on COLO 205, > 100 µM (inactive); with EKVX, 73.3 µM (inactive); with HCT-116, > 100 µM (inactive); in the experiment with HCT-15, > 100 µM. In addition, the GI50 in the experiment with IGROV-1, with M14, in the experiment on MDA-N, in the experiment on NCI-H226, with NCI-H23 and with NCI/ADR-RES was > 100 µM (inactive) throughout. The GI50 in the experiment on OVCAR-8, in the experiment with SK-MEL-5, in the experiment on SN12C, with SNB-75, in the experiment on TK-10 and in the experiment with UACC-257 was > 100 µM (inactive) throughout.
With `O/N=N\c1nc(-c2ccccn2)nc2ccccc12`, the GI50 is 45.3 µM (inactive) with A549; 0.441 µM (active) in the experiment with CCRF-CEM; 6.15 µM (inactive) in the experiment with COLO 205; 18.2 µM (inactive) with EKVX; 3.33 µM (inactive) in the experiment with HCT-116; 1.53 µM with HCT-15. Further, the GI50 with IGROV-1 was 17 µM (inactive); in the experiment on M14, 4.09 µM (inactive); with MDA-N it was 19.6 µM (inactive); in the experiment with NCI-H226, 12.7 µM (inactive); with NCI-H23, 35.2 µM (inactive); in the experiment with NCI/ADR-RES it was 7.78 µM (inactive). Further, the GI50 in the experiment on OVCAR-8 is 12.4 µM (inactive); in the experiment with SK-MEL-2, 4.68 µM (inactive); in the experiment with SK-MEL-5, 2.77 µM (inactive); in the experiment with SN12C, 23 µM (inactive); with SNB-75, 20.3 µM (inactive); in the experiment on TK-10 it was 17.4 µM (inactive). For the same molecule, in the experiment with UACC-257, the GI50 was 7.69 µM (inactive).
On to `COc1c(Br)cc(/C=C(\C#N)c2cccnc2)cc1Br`, for which the GI50 is 53.1 µM (inactive) with A549; > 100 µM (inactive) in the experiment on CCRF-CEM; 34.5 µM (inactive) with COLO 205; 4.31 µM (inactive) in the experiment with EKVX; > 100 µM (inactive) in the experiment with HCT-116; 33.5 µM in the experiment with HCT-15. The GI50 in the experiment with IGROV-1 was 63 µM (inactive); with M14, 43.4 µM (inactive); in the experiment on MDA-N it was > 100 µM (inactive); in the experiment with NCI-H226, 33.7 µM (inactive); with NCI-H23 it was 32.7 µM (inactive); in the experiment with NCI/ADR-RES, 34.9 µM (inactive). Also, the GI50 in the experiment with OVCAR-8 was 53.8 µM (inactive); with SK-MEL-2 it was 96.6 µM (inactive); in the experiment on SK-MEL-5, 43.7 µM (inactive); with SN12C it was > 100 µM (inactive); in the experiment on SNB-75, > 100 µM (inactive); in the experiment with TK-10, 61.7 µM (inactive). Also, the GI50 in the experiment with UACC-257 is > 100 µM (inactive).
Take `CC(C)Oc1cccc(N2C(NCCc3c[nH]c4ccccc34)=Nc3ccncc3S2(=O)=O)c1`: the GI50 with A549 was 40.9 µM (inactive); in the experiment with CCRF-CEM, 6.15 µM (inactive); with COLO 205 it was 1.79 µM (inactive); with EKVX it was 72.8 µM (inactive); in the experiment on HCT-116 it was 6.71 µM (inactive); with HCT-15, 4.98 µM. For the same molecule, the GI50 in the experiment with IGROV-1 is 41.7 µM (inactive); in the experiment on M14, 10.4 µM (inactive); with MDA-MB-435, 25.8 µM (inactive); in the experiment on NCI-H226 it was > 100 µM (inactive); in the experiment on NCI-H23, 33.1 µM (inactive); with NCI/ADR-RES it was 29.9 µM (inactive). Further, the GI50 in the experiment on OVCAR-8 was 57.4 µM (inactive); in the experiment with SK-MEL-2 it was 20.8 µM (inactive); in the experiment with SK-MEL-5 it was 9.59 µM (inactive); in the experiment on SN12C it was > 100 µM (inactive); with SNB-75, 8.05 µM (inactive); in the experiment with TK-10 it was 19.2 µM (inactive). Also, the GI50 with UACC-257 is 9.53 µM (inactive).
For `Cc1noc(NC(=O)Nc2ccccc2F)c1C#N`, the GI50 with A549 is 26.1 µM (inactive); in the experiment with CCRF-CEM, 70.6 µM (inactive); in the experiment with COLO 205 it was > 100 µM (inactive); in the experiment with EKVX, 11.6 µM (inactive); with HCT-116 it was 14.4 µM (inactive); with HCT-15 it was 55.3 µM. Besides, the GI50 in the experiment on IGROV-1 was > 91.6 µM (inactive); with M14 it was > 24.4 µM (inactive); in the experiment on MDA-MB-435, > 100 µM (inactive); with NCI-H226, > 100 µM (inactive); with NCI-H23, > 81.3 µM (inactive); in the experiment with NCI/ADR-RES it was > 100 µM (inactive). The GI50 in the experiment with OVCAR-8 is > 90.8 µM (inactive); in the experiment with SK-MEL-2, > 39.8 µM (inactive); with SK-MEL-5, 45.7 µM (inactive); in the experiment on SN12C it was 16.1 µM (inactive); in the experiment on SNB-75 it was 97.1 µM (inactive); in the experiment on TK-10, > 27.2 µM (inactive). In the experiment on UACC-257, the GI50 is 30.9 µM (inactive).
On to `C/C(=C\COP(=O)(O)OP(=O)(O)O)CC/C=C(\C)CNc1ccc([N+](=O)[O-])cc1`, for which the GI50 in the experiment on A549 was > 100 µM (inactive); in the experiment with CCRF-CEM it was > 100 µM (inactive); in the experiment with COLO 205, > 100 µM (inactive); with EKVX it was > 100 µM (inactive); in the experiment on HCT-116, > 100 µM (inactive); with HCT-15 it was > 100 µM. Further, the GI50 with IGROV-1, with M14, in the experiment on MDA-MB-435, with NCI-H226, in the experiment with NCI-H23 and with NCI/ADR-RES was > 100 µM (inactive) in each case. For the same molecule, the GI50 in the experiment with OVCAR-8, in the experiment with SK-MEL-2, in the experiment with SK-MEL-5, in the experiment with SN12C, with SNB-75 and in the experiment on TK-10 was > 100 µM (inactive) throughout. The GI50 in the experiment on UACC-257 is 71.8 µM (inactive).
Turning to `COC1(CCO)CC=CCC1(CCO)OC` (centres undefined), the GI50 in the experiment on A549 is > 100 µM (inactive); with CCRF-CEM it was > 100 µM (inactive); with COLO 205, > 100 µM (inactive); with EKVX, > 100 µM (inactive); in the experiment on HCT-116 it was > 100 µM (inactive); in the experiment on HCT-15 it was > 100 µM. Moreover, the GI50 in the experiment on IGROV-1, with M14, in the experiment on MDA-N, in the experiment on NCI-H226, in the experiment with NCI/ADR-RES and in the experiment with OVCAR-8 was > 100 µM (inactive) in each case. Further, the GI50 in the experiment on SK-MEL-2, in the experiment with SK-MEL-5, in the experiment on SN12C, in the experiment on SNB-75, in the experiment with TK-10 and in the experiment on UACC-257 was > 100 µM (inactive) throughout.

One may read the GI50 as the concentration that inhibits growth by half.
